Assay results as given in patent US20090012088A1 (priority 2005, published 2009).
“Also recorded” adds a separate entry of the source. Like-named read-outs stand apart in the source and are kept apart here.

How the values were obtained:
PARG [1] = test: Table 2: small molecules tested for PARG inhibition activity (relative to PIP-1); assay type: biochemical
U-937 cells = test: Protection against H2O2 treatment of U-937 cells (cell survival); assay type: cell-based; conditions: FIG. 13
Description: We have made multiple derivatives of PIP-1; these compounds are shown below in Table 2 and in FIG. 11 and labeled Structures 1-39. The neuroprotective effects of structures 1-26 were tested in the cellular assay and compared to the neuroprotective effect of PIP-1 (FIG. 13).
PIP-1 and structures 1-26 were screened for protection against H2O2 treatment of U-937 cells FIG. 13.

PARG [2] = target: T1, PARG (Homo sapiens, UniProt Q86W56); conditions: tannins; read-out: in vitro IC50 for PARG; cited from earlier work
T1 sequence (Q86W56 whole entry, species assumed): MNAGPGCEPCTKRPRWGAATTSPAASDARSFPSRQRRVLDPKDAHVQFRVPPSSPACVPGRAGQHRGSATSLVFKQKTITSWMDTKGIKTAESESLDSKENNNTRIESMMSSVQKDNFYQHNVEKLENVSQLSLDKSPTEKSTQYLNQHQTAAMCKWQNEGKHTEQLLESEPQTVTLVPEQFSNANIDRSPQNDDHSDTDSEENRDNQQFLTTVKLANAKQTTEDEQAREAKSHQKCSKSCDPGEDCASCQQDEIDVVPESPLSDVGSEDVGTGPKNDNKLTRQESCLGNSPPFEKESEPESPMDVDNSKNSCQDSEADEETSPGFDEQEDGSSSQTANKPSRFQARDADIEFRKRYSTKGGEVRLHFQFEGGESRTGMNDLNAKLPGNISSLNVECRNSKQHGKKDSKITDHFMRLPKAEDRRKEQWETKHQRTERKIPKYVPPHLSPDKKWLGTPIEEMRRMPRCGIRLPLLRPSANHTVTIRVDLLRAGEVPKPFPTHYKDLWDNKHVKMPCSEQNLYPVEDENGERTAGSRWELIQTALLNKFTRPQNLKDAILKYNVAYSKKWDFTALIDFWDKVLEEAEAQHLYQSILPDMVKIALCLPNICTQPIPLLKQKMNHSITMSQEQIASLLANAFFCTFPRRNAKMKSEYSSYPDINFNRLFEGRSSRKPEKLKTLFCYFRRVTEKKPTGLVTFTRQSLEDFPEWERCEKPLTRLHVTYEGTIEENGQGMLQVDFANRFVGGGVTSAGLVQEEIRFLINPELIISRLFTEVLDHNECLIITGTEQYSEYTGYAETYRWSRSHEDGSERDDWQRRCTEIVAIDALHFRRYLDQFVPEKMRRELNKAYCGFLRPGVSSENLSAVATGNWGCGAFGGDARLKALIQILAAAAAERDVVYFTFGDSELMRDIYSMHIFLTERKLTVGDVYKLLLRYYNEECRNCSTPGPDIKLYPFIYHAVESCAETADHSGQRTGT

[3] = test system: NAD^+ depletion in HL-60 cell lysate; test: Whole cell assay screen: NAD+ depletion in H2O2-activated HL-60 cell lysate; assay type: cell-based
Description: To identify a non-toxic, non-DNA intercalating, cell permeable small molecule inhibitor of PARG, a high-throughput screen is devised. Given the severe challenges in isolating enough of the PAR substrate for an in vitro screen directly for PARG inhibition, we develop a primary screen that utilizes cell lysates and, in particular, mammalian cell lysates. In this assay, HL-60 cells are treated with H2O2 to damage their DNA (which activates PARP-1) and then lyse the cells. In individual wells of a 384-well plate, this cell lysate is incubated with 22,000 different small molecules from an in-house compound collection; these compounds are either purchased (from ChemBridge Corp.) or collected from various sources at the University of Illinois. (28) NAD^+ levels are measured using a fluorescent method based on the chemical conversion of NAD^+ to a fluorescent product (29, 30) (FIG. 14A). The amount of NAD^+ consumed in each well is monitored, and any compounds that prevent NAD^+ consumption are classified “hits” in this primary screen.
Library screen: 12.5 μL of Lysing PARP buffer (50 mM Tris, 10 mM MgCl2, pH 8.0, 1% Triton X-100) containing 100 μM NAD^+ is added to each well of a 384-well plate. Library compounds at 10 mM in DMSO are transferred using a 384-well pin transfer device that delivers 0.1 μL. HL-60 cells are spun down at 200 g for 5 min. and resuspended in Lysing PARP buffer to a concentration of 8×10^6 cells/mL. 10 μL of a 30% H2O2 solution is added per mL of cells. 12.5 μL of the activated cell lysate is added to the plates. The plates are incubated for 60 min. at 37° C. The concentration of NAD^+ is then determined using a fluorescent assay^1. 10 μL of a 2 M KOH solution and 10 μL of a 20% acetophenone solution (in ethanol) is added to each well. The plate is then incubated at 4° C. for 10 min. 45 μL of a 88% formic acid solution was added to each well. The plate was then incubated for 5 min. in a 110° C. oven. Once the plate cools, the fluorescent intensity of each well is determined on a Criterion Analyst AD (Molecular Devices) with an excitation of 360 nm and an emission of 445 nm.

[4] = test system: neuronally differentiated PC-12 cells; test: Protection from rotenone induced toxicity in neuronally differentiated PC-12 cells; assay type: cell-based
Description: Rotenone is a complex I poison and is widely used in cell culture and animal models of PD. (20, 31, 32) To determine if PIP-1 protects cells from rotenone insult, PC-12 cells are neuronally differentiated (with neuronal growth factor β for 10 days) and then treated with 10 μM rotenone and a range of PIP-1 concentrations. After 72 hours, cell death is assessed using propidium iodide staining as measured by flow cytometry. […] To determine the features on PIP-1 that are important for PARG inhibition and cell protection, three derivatives are constructed that lacked key functionality (see FIG. 19 compounds labeled 3, 4 and 5).
Cell culture conditions: HL-60 and SK-N-SH cells are grown in RPMI 1640 media supplemented with 10% FBS and PC-12 cells are grown in RPMI 1640 media supplemented with 10% HS and 5% FBS. All cell lines are incubated at 37° C. in a 5% CO2, 95% air atmosphere. HL-60 cells are split every two to three days as needed and SK-N-SH cells are split when they reach approximately 90% confluency at a 1:6 ratio. SK-N-SH cells are differentiated by adding media containing 10 μM retinoic acid (in DMSO). Media is replaced every other day and cells are differentiated for a total of 12 days. PC-12 cells are differentiated by adding media containing 25 ng/mL Neuronal Growth Factro β. Media is replaced every other day and cells are differentiated for a total of 10 days. Differentiation is observed by microscopy.
Protection of Rotenone and MPP^+ induced toxicity in PC-12 and SK-N-SH cells: SK-N-SH and PC-12 cells are neuronally differentiated as described above. 10 μM rotenone, 10 μM MPP^+ and various concentrations of PIP-1 or its derivatives are added to the cells and incubated for 72 h. The cells are then washed in PBS and the viability is determined by adding propidium iodide to 1 μg/mL and measuring the fluorescent intensity of each cell by flow cytometry.

PARG [5] = target: PARG (Bos taurus, UniProt O02776); test: Inhibition of PARG activity in vitro (quantitation of free ADP-ribose with benzamidine, fluorescence); assay type: biochemical; set-up: purchased Biomol
Sequence of PARG (Bos taurus, UniProt O02776) (O02776 whole entry): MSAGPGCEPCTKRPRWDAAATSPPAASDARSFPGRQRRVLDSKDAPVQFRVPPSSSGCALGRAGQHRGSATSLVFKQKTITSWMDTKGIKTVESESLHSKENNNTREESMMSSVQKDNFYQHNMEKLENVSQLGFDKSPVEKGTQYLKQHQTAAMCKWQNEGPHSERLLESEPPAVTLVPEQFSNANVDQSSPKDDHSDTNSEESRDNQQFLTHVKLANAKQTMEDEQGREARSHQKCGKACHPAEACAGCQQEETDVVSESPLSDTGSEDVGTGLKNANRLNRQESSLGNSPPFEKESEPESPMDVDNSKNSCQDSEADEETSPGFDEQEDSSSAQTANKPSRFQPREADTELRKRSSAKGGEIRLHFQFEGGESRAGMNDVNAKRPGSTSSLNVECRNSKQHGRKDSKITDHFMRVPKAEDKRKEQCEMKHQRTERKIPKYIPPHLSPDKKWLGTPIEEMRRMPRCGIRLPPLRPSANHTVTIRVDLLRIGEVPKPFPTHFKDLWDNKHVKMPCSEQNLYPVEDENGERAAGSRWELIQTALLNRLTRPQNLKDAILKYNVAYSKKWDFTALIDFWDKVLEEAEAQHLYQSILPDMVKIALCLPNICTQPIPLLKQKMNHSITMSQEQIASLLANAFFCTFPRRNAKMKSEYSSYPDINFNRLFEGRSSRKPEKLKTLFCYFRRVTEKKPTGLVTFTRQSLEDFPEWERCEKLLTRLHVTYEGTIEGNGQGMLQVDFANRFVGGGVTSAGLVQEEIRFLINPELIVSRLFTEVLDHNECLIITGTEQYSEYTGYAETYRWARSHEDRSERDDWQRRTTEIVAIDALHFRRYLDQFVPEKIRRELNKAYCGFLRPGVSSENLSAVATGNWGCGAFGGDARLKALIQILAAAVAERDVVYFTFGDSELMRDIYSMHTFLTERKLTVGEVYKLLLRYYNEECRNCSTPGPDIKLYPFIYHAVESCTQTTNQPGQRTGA
Description: PARG assay: Production and purification of PAR. PARP-1 (20 units) is added to 900 μL of PARP assay buffer containing 1 mM NAD^+ and 22.5 μg activated DNA. This reaction was run at 37° C. for 30 min and stopped by the addition of 300 μL of cold 100% trichloroacetic acid. The proteins thus precipitated are collected by centrifugation at 18,000 g for 30 min at 4° C. After removal of the supernatant, 1 mL of 1 M NaOH and 100 mM EDTA are added to the pellet and incubated for 2 h at 37° C. to cleave the PAR from the PARP protein acceptor. Then 9 mL of PAR buffer A (250 mM ammonium acetate, 6 M guanidinium HCl, 10 mM EDTA, pH 9.0) is added to the PAR and applied to a PROSEP-PB (Millipore) phenyl boronate column that is pre-equilibrated with PAR buffer A. The flowthrough is then reapplied to the column to ensure that all PAR is bound. The column is then washed with 25 mL of PAR buffer A, followed by 10 mL of PAR buffer B (1 M ammonium acetate and 1 mM EDTA, pH 9.0). The bound PAR is eluted with 4 mL of water collected in 1-mL fractions. Fractions containing PAR are pooled and concentrated. The concentration, measured as monomer, is determined by measuring the absorbance at 258 nm. PAR has an extinction coefficient of 13,500 cm^−1 at 258 nm.
Inhibition of PARG Activity: To determine the PARG IC50 values of the compounds, 39 μL of a 25.6 μM solution of PAR in PARG assay (50 mM KCl, 50 mM KH2PO4, pH 7.2) buffer and 1 μL of the compounds at varying concentrations (in PARG assay buffer) are added into the wells of a 384-well plate. The reaction is initiated by the addition of 10 μL of PARG (Biomol) at a concentration of 1 ng/ml (in PARG assay buffer), bringing the final concentration to […] and 20 μM PAR with varying concentrations of compounds in a total volume of 50 μL. The plate is incubated for 20 min at room temperature. The amount of free ADP-ribose hemiacetals is determined by the addition of 5 μL of an aqueous 8.5M KOH solution and 5 μL of an aqueous 850 μM benzamidine solution to each well. The plate is then incubated for 10 min in an oven set at 110° C. The plate is allowed to cool and then read on a Criterion Analyst AD with an excitation of 360 nm and an emission of 445 nm.

PARG [6] = target: T1, PARG; conditions: 32P-PAR assay; KM of PAR 1.7 μM; cited from earlier work

Molecule | Activity (PARG [1]) | Protection of U-937 cells treated with H2O2 (activity compared to PIP-1) (U-937 cells) | further results
CC(=O)Nc1c(N2CCCC2)cnn(-c2ccccc2)c1=O [Structure 18] | moderate | moderate activity | 
CCCN(CCC)c1cnn(-c2ccccc2)c(=O)c1NC(C)=O [Structure 26] | low | low or no activity | 
CC(=O)N(C(C)=O)c1c(Cl)cnn(-c2ccccc2)c1=O [Structure 10] | low |  | 
Oenothein B |  |  | IC50 (PARG [2]): 3.8 µM
CN(C)c1cnn(C)c(=O)c1N [Structure 39] | low |  | 
Nc1c(N2CCCC2)cnn(-c2ccccc2)c1=O [Structure 17] | moderate | moderate activity | 
CN(C)c1cnn(C)c(=O)c1N [compound 6, 4-Amino-5-dimethylamino-2-methyl-2H-pyridazin-3-one] |  |  | Inhibition of NAD+ depletion in the whole cell assay [3]: do not inhibit NAD^+ depletion; Protection of rotenone-treated neuronally differentiated PC-12 cells (in words) [4]: inactive; Protection of rotenone-treated neuronally differentiated PC-12 cells (in words) ([4]; listed as analogue 6): do not protect; PARG inhibition in vitro (in words) (PARG [5]): inactive; PARG inhibition in vitro (in words) (PARG [5]; listed as analogue 6): do not inhibit NAD^+ depletion or PARG activity
CC(=O)Nc1c(N2CCOCC2)cnn(-c2ccccc2)c1=O [Structure 22] | moderate | moderate activity | 
CCCCN(CCCC)c1cnn(-c2ccccc2)c(=O)c1N [Structure 13] | good | activity similar or better than PIP-1 | 
CN(C)c1ccn(-c2ccccc2)c(=O)c1N [compound 4, 3-Amino-4-dimethylamino-1-phenyl-1H-pyridin-2-one] |  |  | Inhibition of NAD+ depletion in the whole cell assay [3]: inhibit NAD^+ depletion; Protection of rotenone-treated neuronally differentiated PC-12 cells (in words) ([4]; listed as lactam 4): virtually identical PARG inhibition and cell protection properties as PIP-1; also recorded: protect; PARG inhibition in vitro (in words) (PARG [5]; listed as lactam 4): virtually identical PARG inhibition and cell protection properties as PIP-1; also recorded: inhibit PARG activity in vitro
4-Amino-5-dimethylamino-2-phenyl-2H-pyridazin-3-one [PIP-1] | moderate | low or no activity | 
CCCN(CCC)c1cnn(-c2ccccc2)c(=O)c1N [Structure 12] | good | activity similar or better than PIP-1 | 
CCCCN(CCCC)c1cnn(-c2ccccc2)c(=O)c1NC(C)=O [Structure 14] | low | low or no activity | 
Nc1c(N2CCOCC2)cnn(-c2ccccc2)c1=O [Structure 21] | good | activity similar or better than PIP-1 | 
CCN(CC)c1cnn(-c2ccccc2)c(=O)c1NC(C)=O [Structure 25] | moderate | moderate activity | 
Nc1c(N2CCCCC2)cnn(-c2ccccc2)c1=O [Structure 19] | good | activity similar or better than PIP-1 | 
Nc1ccc2cc3ccc(N)cc3nc2c1 [profavine] |  |  | Ki (PARG [6]): 36 µM
O=c1c(Cl)c(O)cnn1-c1ccccc1 [entry 3, reference compound] | low | low or no activity | 
CCN(CC)CCOc1ccc2c(c1)C(=O)c1cc(OCCN(CC)CC)ccc1-2 [Tilorone] |  |  | Ki (PARG [6]): ~7 µM
CCN(CC)c1cnn(-c2ccccc2)c(=O)c1N [Structure 11] | good | activity similar or better than PIP-1 | 
CC(=O)Nc1c(N(C)C)cnn(-c2ccccc2)c1=O [Structure 24] | moderate | moderate activity | 
CCCCN(CC)c1cnn(-c2ccccc2)c(=O)c1NC(C)=O [Structure 16] | low | low or no activity | 
CC(=O)Nc1c(N2CCCCC2)cnn(-c2ccccc2)c1=O [Structure 20] | good | activity similar or better than PIP-1 | 
CCOc1ccc2nc3cc(N)ccc3c(N)c2c1 [ethacridine] |  |  | Ki (PARG [6]): < 7 µM
CCCCCCNc1c(Cl)cnn(-c2ccccc2)c1=O [Structure 7] | low |  | 
Nc1c(Cl)cnn(-c2ccccc2)c1=O [Structure 8] | low |  | 
CCCCN(CC)c1cnn(-c2ccccc2)c(=O)c1N [Structure 15] | moderate | moderate activity | 
CC(=O)Nc1c(Cl)cnn(-c2ccccc2)c1=O [Structure 9] | low |  | 
